Results on three compounds are retold here after patent publication US7517877B2, “5-substituted-alkylaminopyrazole derivatives as pesticides” (Merial Limited, priority 2002, dated 2009).

The test system of data set [1] is Nephotettix cinciceps (Rice Leafhopper). Kind of data set: Method C: Nephotettix cinciceps (Rice Leafhopper) screen, dipped rice plants. It is filed as in vivo, Nephotettix cincticeps. As to conditions: 144 h, test concentration of 100 ppm, L3 larvae, after 6 days storage. The protocol: Method C: Nephotettix Cinciceps (Rice Leafhopper) Screen
The leaves of 12 rice plants having a stem length of 8 cm were dipped for 5 seconds into an aqueous solution of the formulated test compound. After the solution had run off, the rice plants treated in this manner were placed in a Petri dish and populated with about 20 larvae (L3 stage) of Nephotettix cincticeps. The Petri dish was closed and then stored in a climate chamber (16 hours of light/day, 25° C., 40-60% relative humidity). After 6 days storage, the percentage mortality of leafhopper larvae was determined.

In general, melting point refers to the temperature of the solid-liquid transition. In the case of `CCSCCCNc1c(S(=O)(=O)C(F)(F)F)c(C#N)nn1-c1c(Cl)cc(C(F)(F)F)cc1Cl` [Compound 1-14, 1-(2,6-dichloro-4-trifluoromethylphenyl)-3-cyano-5-(3-ethylthiopropylamino)-4-trifluoromethylsulfonylpyrazole], the melting point was 80 °C.
For the compound `CCSCCCN(C)c1c(S(=O)(=O)C(F)(F)F)c(C#N)nn1-c1c(Cl)cc(C(F)(F)F)cc1Cl` [Compound 2-14, 1-(2,6-dichloro-4-trifluoromethylphenyl)-3-cyano-5-[N-(3-ethylthiopropyl)-N-methylamino]-4-trifluoromethylsulfonylpyrazole], the melting point worked out at 89 °C.
Broadly, the mortality is the share of the test organisms that died. For the compound `[O-][S+](C1CCSC1)C1CCSC1` (stereo not drawn) [Compound 1-37, 3-tetrahydrothienyl sulfoxide], the mortality at 100 ppm in data set [1] was at least 98%.
